According to ChEMBL document CHEMBL1201862, “PubChem BioAssay data set” (2004):
Active and inactive are the calls of the source.

Key:
[1] = biological target: T1, Carboxy-terminal domain RNA polymerase II polypeptide A small phosphatase 1 (Homo sapiens, UniProt Q9GZU7); test: inhibitors of CTDSP1, concentration-response testing, biochemical assay, absorbance-based, actives from ultra-high-throughput screening (AID 540297); format: functional
T1 sequence (Q9GZU7 whole entry): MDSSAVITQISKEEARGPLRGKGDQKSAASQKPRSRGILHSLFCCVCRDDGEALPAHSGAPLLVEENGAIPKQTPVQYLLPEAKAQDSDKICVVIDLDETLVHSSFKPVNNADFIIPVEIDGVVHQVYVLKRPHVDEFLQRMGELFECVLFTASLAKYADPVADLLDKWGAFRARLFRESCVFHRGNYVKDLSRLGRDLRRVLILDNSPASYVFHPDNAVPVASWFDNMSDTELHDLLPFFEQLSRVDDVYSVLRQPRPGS

[2] = biological target: Beta-adrenergic receptor kinase 1 (Homo sapiens, UniProt P25098); test: GRK2 inhibitors displacing RNA aptamer, dose response, biochemical, flow cytometry beads, FAM-aptamer, powder set 1 (AID 588720)
Sequence of Beta-adrenergic receptor kinase 1 (P25098 whole entry): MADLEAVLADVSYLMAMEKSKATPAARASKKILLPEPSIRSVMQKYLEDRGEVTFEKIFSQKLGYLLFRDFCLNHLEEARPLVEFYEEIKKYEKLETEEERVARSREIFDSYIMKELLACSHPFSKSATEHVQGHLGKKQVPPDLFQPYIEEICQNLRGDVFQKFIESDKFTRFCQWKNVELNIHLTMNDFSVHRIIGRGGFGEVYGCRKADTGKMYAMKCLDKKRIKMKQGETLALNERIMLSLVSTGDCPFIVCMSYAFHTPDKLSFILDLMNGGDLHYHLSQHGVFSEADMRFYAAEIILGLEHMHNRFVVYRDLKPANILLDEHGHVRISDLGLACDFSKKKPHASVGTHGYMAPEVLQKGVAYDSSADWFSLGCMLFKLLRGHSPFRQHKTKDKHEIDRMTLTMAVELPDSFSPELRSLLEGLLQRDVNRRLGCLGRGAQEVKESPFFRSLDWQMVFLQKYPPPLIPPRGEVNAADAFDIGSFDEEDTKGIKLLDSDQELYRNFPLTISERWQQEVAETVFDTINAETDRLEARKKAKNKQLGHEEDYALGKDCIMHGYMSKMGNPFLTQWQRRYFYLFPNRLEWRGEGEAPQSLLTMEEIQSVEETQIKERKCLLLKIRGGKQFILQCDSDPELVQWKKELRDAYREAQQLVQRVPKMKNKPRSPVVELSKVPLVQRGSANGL

[3] = biological target: Exodeoxyribonuclease V (Escherichia coli (strain K12), UniProt P04993+P07648+P08394); test: E. coli RecBCD inhibitors, dose response, counter-screen for AddAB inhibitor project, absorbance, V66 E. coli, mutant T4 phage (AID 492957); format: functional, cell-based, Escherichia coli str. K-12 substr. MG1655
Sequence of Exodeoxyribonuclease V (P04993 whole entry): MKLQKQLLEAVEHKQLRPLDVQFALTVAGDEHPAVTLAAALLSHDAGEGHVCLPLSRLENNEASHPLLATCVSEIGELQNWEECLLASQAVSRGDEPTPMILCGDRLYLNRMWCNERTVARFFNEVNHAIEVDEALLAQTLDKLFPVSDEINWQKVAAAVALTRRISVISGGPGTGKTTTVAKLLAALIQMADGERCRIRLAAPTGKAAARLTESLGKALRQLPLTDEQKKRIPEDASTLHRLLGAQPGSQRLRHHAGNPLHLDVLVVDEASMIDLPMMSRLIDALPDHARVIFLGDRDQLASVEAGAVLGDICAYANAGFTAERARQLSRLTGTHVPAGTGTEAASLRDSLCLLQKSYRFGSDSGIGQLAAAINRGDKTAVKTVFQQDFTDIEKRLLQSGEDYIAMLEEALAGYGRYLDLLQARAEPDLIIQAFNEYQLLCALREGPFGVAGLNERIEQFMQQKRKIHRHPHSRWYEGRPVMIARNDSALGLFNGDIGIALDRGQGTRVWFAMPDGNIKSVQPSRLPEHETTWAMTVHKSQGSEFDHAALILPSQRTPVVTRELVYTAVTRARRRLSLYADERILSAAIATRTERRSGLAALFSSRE
Sequence of Exodeoxyribonuclease V (P07648 whole entry): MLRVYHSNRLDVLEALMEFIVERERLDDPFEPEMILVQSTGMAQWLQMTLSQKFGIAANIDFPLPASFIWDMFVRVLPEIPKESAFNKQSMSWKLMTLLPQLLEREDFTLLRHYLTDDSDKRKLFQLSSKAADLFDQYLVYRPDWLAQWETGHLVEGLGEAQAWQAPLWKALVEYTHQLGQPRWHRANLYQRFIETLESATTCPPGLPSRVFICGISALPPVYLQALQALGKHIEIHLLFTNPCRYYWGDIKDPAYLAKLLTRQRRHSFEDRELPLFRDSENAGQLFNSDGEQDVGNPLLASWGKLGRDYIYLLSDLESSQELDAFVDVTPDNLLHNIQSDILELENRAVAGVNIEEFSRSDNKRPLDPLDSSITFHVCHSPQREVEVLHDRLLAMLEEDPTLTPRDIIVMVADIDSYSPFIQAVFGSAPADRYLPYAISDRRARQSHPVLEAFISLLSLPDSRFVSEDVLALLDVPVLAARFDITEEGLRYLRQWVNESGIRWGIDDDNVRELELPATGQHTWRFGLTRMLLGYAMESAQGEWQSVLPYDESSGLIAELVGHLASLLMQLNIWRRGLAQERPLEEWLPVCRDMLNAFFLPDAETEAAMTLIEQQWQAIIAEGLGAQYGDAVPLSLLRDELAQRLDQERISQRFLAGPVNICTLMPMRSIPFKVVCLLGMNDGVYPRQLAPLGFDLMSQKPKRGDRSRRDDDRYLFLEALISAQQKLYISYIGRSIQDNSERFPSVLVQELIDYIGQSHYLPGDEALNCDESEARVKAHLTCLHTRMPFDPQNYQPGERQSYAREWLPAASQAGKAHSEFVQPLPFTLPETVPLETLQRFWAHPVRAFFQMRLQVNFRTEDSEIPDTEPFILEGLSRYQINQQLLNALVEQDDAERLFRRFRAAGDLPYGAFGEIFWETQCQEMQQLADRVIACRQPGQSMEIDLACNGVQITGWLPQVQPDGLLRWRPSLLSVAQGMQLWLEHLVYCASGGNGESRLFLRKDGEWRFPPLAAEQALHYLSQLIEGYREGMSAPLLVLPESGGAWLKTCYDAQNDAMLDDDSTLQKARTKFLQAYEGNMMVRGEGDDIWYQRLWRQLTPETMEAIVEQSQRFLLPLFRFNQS
Sequence of Exodeoxyribonuclease V (P08394 whole entry): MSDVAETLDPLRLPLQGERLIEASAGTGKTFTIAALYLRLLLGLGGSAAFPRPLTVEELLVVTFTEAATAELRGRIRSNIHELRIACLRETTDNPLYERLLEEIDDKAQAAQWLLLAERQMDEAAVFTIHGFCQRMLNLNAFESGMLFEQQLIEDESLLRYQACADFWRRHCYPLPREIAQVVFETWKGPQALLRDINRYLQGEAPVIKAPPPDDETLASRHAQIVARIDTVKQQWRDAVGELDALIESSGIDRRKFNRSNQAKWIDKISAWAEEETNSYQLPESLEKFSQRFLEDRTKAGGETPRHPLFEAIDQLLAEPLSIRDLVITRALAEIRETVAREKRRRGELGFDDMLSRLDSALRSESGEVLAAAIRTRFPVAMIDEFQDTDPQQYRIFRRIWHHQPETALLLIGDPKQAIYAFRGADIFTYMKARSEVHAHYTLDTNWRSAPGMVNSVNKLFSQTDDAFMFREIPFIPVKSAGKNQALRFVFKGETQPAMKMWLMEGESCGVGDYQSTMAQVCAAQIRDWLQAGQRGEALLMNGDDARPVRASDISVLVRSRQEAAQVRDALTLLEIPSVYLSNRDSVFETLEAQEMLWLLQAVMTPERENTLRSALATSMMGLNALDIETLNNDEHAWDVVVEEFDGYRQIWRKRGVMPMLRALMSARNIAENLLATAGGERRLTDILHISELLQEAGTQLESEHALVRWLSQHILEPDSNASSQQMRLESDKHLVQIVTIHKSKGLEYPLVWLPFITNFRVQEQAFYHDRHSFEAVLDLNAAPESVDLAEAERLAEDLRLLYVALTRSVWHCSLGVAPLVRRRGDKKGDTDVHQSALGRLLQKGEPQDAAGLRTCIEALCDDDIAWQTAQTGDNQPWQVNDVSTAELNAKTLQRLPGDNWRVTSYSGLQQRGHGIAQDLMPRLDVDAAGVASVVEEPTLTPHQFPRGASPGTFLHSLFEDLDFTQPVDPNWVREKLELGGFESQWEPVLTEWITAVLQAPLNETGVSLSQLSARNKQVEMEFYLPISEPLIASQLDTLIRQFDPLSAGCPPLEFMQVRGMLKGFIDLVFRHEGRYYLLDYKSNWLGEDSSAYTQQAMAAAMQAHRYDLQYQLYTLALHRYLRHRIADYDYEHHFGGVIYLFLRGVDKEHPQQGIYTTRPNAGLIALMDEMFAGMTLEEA

[4] = Counterscreen for AddAB inhibitors: absorbance-based bacterial cell-based high throughput dose response assay for inhibitors of bacterial viability. [Related pubchem assays (depositor defined):AID435030, AID449728, AID449731, AID488942, AID488955, AID488956]; format: functional
[5] = biological target: T2, Estrogen receptor (Homo sapiens, UniProt P03372);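 note: potency for inhibiting coactivator peptide recruitment to the receptor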
T2 sequence (P03372 whole entry): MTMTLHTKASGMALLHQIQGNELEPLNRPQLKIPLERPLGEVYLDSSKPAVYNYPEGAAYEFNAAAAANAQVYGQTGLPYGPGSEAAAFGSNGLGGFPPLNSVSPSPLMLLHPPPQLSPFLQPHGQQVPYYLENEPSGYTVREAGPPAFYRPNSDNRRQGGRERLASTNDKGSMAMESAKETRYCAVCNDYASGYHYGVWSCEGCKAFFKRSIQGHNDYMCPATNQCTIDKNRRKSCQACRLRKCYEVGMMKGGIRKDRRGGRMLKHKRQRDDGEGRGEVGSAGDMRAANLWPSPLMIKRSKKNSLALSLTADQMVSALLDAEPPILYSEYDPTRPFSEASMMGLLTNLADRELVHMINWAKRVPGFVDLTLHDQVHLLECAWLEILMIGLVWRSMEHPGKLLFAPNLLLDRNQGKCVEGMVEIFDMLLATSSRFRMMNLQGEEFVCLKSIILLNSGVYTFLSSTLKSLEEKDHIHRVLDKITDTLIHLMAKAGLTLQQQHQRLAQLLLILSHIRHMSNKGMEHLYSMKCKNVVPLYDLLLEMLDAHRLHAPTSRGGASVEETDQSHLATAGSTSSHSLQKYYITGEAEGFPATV

[6] = tested on: HEK293; test: inhibitors of LMP1-driven NF-kB reporter, dose response, cell-based, HEK293, luciferase, cherry-pick (AID 588343); format: functional; settings: Homo sapiens
[7] = cells; format: functional, cell-based
[8] = tested on: Streptococcus; test: Group A Streptococcus viability loss, dose response, counter-screen for streptokinase expression inhibitor project, luminescence, BacTiterGlo (AID 1915); format: functional, organism-based;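 note: potency for reduction of bacterial viability or growth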
[9] = biological target: ATP-dependent molecular chaperone HSP82 (Candida albicans (strain WO-1) (Yeast), UniProt C4YTQ8); test: loss of DOC-induced GRE-beta-galactosidase reporter signal, dose response, Hsp90 inhibitor project, S. cerevisiae, luminescence (AID 2400); format: functional, cell-based;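 note: beta-galactosidase luminescence from glucocorticoid response element reporter as proxy for Hsp90 function; inhibitor potency where signal loss means Hsp90 inhibition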
[10] = cells; format: functional, cell-based; remark: listed apart in the source
[11] = cytotoxicity in HPDE-C7 cells, cell-based, fluorescence, HTS (AID 430); format: functional; settings: Homo sapiens
[12] = insulin promoter down-regulators in MIN6 cells, imaging, high-content screening, mouse beta cells (AID 1628); format: functional
[13] = biological target: Heat shock protein HSP 90-alpha (Homo sapiens, UniProt P07900); format: functional, organism-based
[14] = tested on: Vero; test: cells; format: functional, cell-based; settings: Chlorocebus sabaeus
[15] = cytotoxicity in MIN6 insulinoma cells, dose response, cytotoxicity control, cell-based, mouse insulinoma (AID 2122); format: functional;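 note: confirmatory high-throughput counterscreen run to flag cytotoxic compounds; mouse MIN-6 beta cells carrying an insulin promoter eGFP reporter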
[16] = biological target: T3, Serine/threonine-protein phosphatase (Candida dubliniensis (strain CD36 / CBS 7987 / NCPF 3949 / NRRLY-17841) (Yeast), UniProt B9W6M3); test: calcineurin pathway inhibitors in yeast reporter, dose response, S. cerevisiae, CDRE-lacZ, luminescence, secondary (AID 2388); format: functional, cell-based;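 note: yeast reporter cells carrying a calcineurin-responsive lacZ construct stimulated with calcium chloride; luminescent beta-galactosidase reporter signal in whole cells rather than isolated phosphatase activity; potency for inhibition where a drop in reporter signal means calcineurin blockade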
T3 sequence (B9W6M3 whole entry): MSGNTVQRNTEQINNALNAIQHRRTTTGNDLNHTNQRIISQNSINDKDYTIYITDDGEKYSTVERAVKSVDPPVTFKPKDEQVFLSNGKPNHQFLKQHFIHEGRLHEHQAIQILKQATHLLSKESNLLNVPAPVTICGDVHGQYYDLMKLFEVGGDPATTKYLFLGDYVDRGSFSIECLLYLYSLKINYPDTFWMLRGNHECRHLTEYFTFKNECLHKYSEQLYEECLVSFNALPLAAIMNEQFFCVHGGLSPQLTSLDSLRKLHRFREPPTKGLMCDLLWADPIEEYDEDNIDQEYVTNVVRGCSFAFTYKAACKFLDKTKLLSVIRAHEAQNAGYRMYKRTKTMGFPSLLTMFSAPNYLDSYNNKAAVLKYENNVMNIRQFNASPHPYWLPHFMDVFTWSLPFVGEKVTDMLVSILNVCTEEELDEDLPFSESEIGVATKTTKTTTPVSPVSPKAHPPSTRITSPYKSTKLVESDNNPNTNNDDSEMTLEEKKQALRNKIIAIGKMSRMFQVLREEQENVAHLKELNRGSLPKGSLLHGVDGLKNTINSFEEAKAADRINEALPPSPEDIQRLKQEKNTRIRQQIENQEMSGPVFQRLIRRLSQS

[17] = tested on: Streptococcus sp. 'group A'; test: growth inhibition of control SK(-) GAS strain, dose response, counter-screen for streptokinase expression inhibitor project, luminescence, kanamycin, BacTiterGlo, confirmation (AID 1900); format: functional, organism-based
[18] = C. albicans growth with fluconazole, confirmation, fluorescence, retest (AID 2467); format: functional, cell-based
[19] = cytotoxicity in KRAS-transformed pancreatic duct cells, primary screen, cell-based, fluorescence, HTS (AID 431); format: functional; settings: Homo sapiens;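 note: cell line used: HPDE-C7K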
[20] = NIH-3T3 fibroblast cytotoxicity, dose response, cytotoxicity control, cell-based, fluorescence, Alamar Blue, secondary assay (AID 2327); format: functional;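 note: NIH-3T3 mouse fibroblasts cultured with fluconazole at 8 µg/mL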
[21] = biological target: Keap1/Nrf2 (Homo sapiens, UniProt Q14145); test: Keap1-Nrf2 protein-protein interaction inhibitors, dose response, biochemical, fluorescence polarization, cherry-picked samples (AID 588683)
Sequence of Keap1/Nrf2 (Q16236 whole entry): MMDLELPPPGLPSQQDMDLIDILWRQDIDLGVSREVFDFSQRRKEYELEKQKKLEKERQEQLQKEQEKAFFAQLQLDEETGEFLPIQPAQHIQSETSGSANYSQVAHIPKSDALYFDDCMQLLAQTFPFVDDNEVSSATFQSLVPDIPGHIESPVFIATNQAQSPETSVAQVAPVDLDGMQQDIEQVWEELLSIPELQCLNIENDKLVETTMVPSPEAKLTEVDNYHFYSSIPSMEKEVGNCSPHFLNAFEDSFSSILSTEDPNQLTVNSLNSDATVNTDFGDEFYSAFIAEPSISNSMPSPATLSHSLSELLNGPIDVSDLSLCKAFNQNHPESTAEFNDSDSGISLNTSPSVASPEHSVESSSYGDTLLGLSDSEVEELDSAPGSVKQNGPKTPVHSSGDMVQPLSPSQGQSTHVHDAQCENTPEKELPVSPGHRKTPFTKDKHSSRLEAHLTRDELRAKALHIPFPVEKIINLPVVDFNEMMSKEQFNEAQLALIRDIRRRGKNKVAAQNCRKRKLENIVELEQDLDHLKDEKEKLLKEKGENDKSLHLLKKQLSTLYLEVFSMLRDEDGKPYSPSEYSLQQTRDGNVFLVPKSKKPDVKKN
Sequence of Keap1/Nrf2 (Q14145 whole entry): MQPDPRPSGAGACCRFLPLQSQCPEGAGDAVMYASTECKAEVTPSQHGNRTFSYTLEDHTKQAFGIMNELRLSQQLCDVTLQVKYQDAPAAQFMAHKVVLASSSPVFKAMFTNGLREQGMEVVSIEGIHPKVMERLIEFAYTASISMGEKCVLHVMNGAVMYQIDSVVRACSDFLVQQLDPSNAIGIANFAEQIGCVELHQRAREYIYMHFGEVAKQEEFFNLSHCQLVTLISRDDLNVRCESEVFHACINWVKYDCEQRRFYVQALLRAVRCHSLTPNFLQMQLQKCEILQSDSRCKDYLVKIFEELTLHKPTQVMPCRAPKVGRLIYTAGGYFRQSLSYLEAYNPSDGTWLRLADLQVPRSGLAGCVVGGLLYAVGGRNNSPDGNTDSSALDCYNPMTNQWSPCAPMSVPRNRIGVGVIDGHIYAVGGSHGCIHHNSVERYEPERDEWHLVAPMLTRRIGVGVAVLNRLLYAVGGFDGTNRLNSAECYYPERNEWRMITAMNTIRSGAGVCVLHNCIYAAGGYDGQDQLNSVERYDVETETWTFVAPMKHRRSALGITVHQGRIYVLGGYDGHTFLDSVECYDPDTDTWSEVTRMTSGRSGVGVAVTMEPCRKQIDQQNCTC

[22] = biological target: T4, ORF 73 (Human herpesvirus 8, UniProt O40947); test: inhibitors of C-LANA binding to LBS DNA, dose response, biochemical, fluorescence polarization, cherry-picked samples (AID 504725); design: species or system Human gammaherpesvirus 8;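 note: fluorescence polarization of a labeled DNA duplex reporting LANA DNA binding; potency is for inhibitors that block LANA binding to the DNA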
T4 sequence (O40947 whole entry): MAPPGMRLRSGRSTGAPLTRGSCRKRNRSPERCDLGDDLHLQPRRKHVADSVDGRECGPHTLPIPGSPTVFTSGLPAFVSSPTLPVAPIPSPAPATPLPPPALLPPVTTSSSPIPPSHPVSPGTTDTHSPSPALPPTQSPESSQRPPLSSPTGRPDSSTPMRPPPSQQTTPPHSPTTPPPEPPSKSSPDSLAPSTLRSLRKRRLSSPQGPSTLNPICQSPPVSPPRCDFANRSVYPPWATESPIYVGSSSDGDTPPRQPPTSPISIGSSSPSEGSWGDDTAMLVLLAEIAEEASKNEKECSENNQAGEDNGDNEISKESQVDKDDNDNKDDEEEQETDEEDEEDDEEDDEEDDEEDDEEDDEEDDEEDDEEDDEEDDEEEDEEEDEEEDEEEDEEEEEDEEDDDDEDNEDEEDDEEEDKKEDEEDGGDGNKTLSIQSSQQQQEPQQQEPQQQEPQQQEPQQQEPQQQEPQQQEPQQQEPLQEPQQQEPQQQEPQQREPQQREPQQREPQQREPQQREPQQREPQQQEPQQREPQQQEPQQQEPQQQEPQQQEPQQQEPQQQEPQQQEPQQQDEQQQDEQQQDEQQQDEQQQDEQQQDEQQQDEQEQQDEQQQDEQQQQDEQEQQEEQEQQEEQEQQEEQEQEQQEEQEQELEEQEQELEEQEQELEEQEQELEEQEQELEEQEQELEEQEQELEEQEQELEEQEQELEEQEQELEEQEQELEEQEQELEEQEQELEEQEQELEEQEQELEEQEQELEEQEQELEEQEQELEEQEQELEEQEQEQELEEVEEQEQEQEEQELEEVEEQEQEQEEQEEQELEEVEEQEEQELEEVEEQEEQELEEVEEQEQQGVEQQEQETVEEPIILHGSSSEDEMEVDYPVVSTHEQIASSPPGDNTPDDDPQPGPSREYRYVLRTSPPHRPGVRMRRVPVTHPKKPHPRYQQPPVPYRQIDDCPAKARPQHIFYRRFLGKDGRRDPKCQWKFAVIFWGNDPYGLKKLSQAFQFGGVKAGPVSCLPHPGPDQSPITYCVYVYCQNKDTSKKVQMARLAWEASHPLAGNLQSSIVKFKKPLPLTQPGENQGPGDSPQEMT

[23] = cytotoxicity toward DRD oncogenic fibroblasts, dose response, cell-based, non-viral oncogenic, luminescence (AID 1934); format: functional; settings: Homo sapiens
[24] = biological target: Paired box protein Pax-8 (Homo sapiens, UniProt Q06710); test: inhibitors of PAX8-driven TPO luciferase reporter, dose response, RMG-I cells, cherry-pick (AID 687027); format: functional, cell-based;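 note: luciferase reporter driven by Pax8 target thyroperoxidase promoter measured by SteadyGlo luminescence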
[25] = tested on: BJ; test: cells; format: functional, cell-based; settings: Homo sapiens
[26] = biological target: T5, Cytochrome P450 1A2 (Homo sapiens, UniProt P05177);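 note: PubChem cytochrome P450 panel assay, CYP1A2 panel member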
T5 sequence (P05177 whole entry): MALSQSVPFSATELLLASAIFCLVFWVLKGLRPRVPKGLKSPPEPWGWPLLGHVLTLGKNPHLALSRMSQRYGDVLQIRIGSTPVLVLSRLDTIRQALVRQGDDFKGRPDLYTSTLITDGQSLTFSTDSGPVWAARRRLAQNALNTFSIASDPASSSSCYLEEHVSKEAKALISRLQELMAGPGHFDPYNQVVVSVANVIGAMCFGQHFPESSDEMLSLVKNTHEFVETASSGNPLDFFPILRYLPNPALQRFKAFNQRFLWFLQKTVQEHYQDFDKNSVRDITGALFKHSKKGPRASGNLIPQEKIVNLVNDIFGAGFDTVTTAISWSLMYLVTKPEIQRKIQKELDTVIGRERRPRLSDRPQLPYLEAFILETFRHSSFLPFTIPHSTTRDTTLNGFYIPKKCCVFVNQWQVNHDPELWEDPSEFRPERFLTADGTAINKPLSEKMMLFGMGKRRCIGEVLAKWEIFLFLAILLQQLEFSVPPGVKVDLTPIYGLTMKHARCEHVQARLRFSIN

[27] = tested on: BJ; test: cytotoxicity toward BJ-TERT-LT-ST fibroblasts, dose response, cell-based, RAS-independent, luminescence (AID 1935); format: functional; settings: Homo sapiens;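 note: BJ fibroblasts immortalized with TERT plus LT and ST oncogenes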
[28] = cells; format: functional, cell-based; remark: listed apart in the source
[29] = inhibitors of SNCA 5'UTR-driven translation, confirmation, luminescence, H4 neuroglioblastoma cells, dose confirmation (AID 2454); format: functional, cell-based;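 note: H4 neuroglioblastoma cells carrying an alpha-synuclein 5'UTR luciferase reporter; potency for inhibition of the luciferase signal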
[30] = luciferase reporter signal reduction – luminescence, H4-C neuroglioblastoma cells, dose response (AID 2458); format: functional, cell-based;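 note: H4 neuroglioblastoma cells stably carrying a luciferase reporter gene fusion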
[31] = inhibitors of firefly luciferase expression or activity, dose response, H4 neuroglioma cells, luminescence (AID 1990); format: functional, cell-based
[32] = tested on: BJ; test: cytotoxicity toward BJ-TERT fibroblasts, dose response, cell-based, RAS-independent, luminescence (AID 1933); format: functional; settings: Homo sapiens
[33] = tested on: Jurkat; test: antigen receptor-induced NF-kB inhibitors, dose response, Jurkat, luciferase reporter, luminescence, B- and T-cell (AID 489004); format: functional, cell-based; settings: Homo sapiens;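 note: NF-kB luciferase reporter Jurkat cells stimulated with PMA plus ionomycin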
[34] = inhibitors of SNCA 5'UTR-driven reporter translation, confirmation, H4 neuroglioma cells, luminescence (AID 1988); format: functional, cell-based
[35] = cytotoxicity in HEK-293T NF-kB-Luc cells, dose response, cytotoxicity control for B/T-cell NF-kB inhibitor project, cell-based, uHTS hits (AID 489019); format: functional;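 note: IC50 reflects cytotoxicity as loss of cell viability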
[36] = biological target: Cytochrome P450 3A4 (Homo sapiens, UniProt P08684);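 note: CYP3A4 tested as one member of a cytochrome P450 panel screen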

O=C(CCS(=O)(=O)c1ccc(Br)cc1)NCc1cccs1
IC50 [1]: 48 µM (active)
EC50 [2]: 1.79 µM (active)

Cc1cccc(NC(=O)Cn2cc(C(=O)c3ccco3)c3ccccc32)c1
IC50 [3]: > 119 µM (inactive)
IC50 [4]: > 119 µM (inactive)
IC50 [5]: > 50 µM (not active)

O=C(CCS(=O)(=O)c1ccc(Br)cc1)NCCc1ccc(Cl)cc1
EC50 [2]: 7.06 µM (active)

Oc1c(C(Nc2nc3ccccc3s2)c2ccco2)ccc2cccnc12 (centres undefined)
AC50 [6]: 6.93 µM (active)
EC50 [7]: 9.09 µM (active)
EC50 [8]: 5.98 µM (active)
EC50 [9]: 33.4 µM (active)
EC50 [10]: > 350 µM (not active)
IC50 [3]: > 119 µM (inactive)
EC50 [11]: 8.6 µM (active)
IC50 [12]: 1.21 µM (active)
AC50 [13]: 24.1 µM (active)
IC50 [4]: > 119 µM (inactive)
IC50 [14]: > 25 µM (active)
IC50 [15]: 0.896 µM (active)
EC50 [16]: > 180 µM (inactive)
EC50 [17]: 1.76 µM (active)
EC50 [18]: 0.854 µM (active)
EC50 [19]: 6.19 µM (active)
EC50 [20]: 12.9 µM (active)

Cc1nc(Cl)c2c(n1)N=C1CCCC(O)=C1O2
AC50 [21]: 15.1 µM (active)
AC50 [22]: 8.8 µM (active)

O=C(c1ccc(Br)cc1)c1cc([N+](=O)[O-])ccc1N1CCCCC1
EC50 [23]: 0.694 µM (active)
AC50 [24]: 2.73 µM (active)
EC50 [25]: 1.12 µM (inconclusive)
AC50 [26]: 2 µM (inconclusive)
EC50 [27]: 0.464 µM (active)
EC50 [28]: 1.49 µM (active)
EC50 [29]: > 12 µM (inconclusive)
EC50 [30]: 0.892 µM (active)
EC50 [31]: 0.623 µM (active)
EC50 [32]: 0.697 µM (active)
IC50 [33]: > 80 µM (inactive)
EC50 [34]: < 0.1 µM (active)
IC50 [35]: > 80 µM (inactive)

COCC(=O)N1CCC2(CC1)CN(C(c1ccccc1)c1ccccc1)C2
AC50 [36]: inconclusive
